# Assay results reported in patent US20110076240A1, “Antifungal and Anti-Cariogenic Cellobio-Oligosaccharides Produced by Dextransucrase” (priority 2008, published 2011).
# Test system: mutansucrase
# Experiment: Inhibition of water insoluble glucan synthesis (absorbance at 550 nm; adherence to glass vials)
# Format: biochemical, Streptococcus mutans and S. sorbrinus
# Details: 50 mM test substance, 1 M sucrose, 37° C., 48 h
# Experimental: Isolation of Oral Bacteria and Production of Mutansucrase: Oral bacteria were collected by a cotton swab from human teeth and streaked onto a brain heart infusion (BHI) agar containing 4% sucrose. The culture was grown at 37° C. until visible colonies of Streptococcus mutans and S. sorbrinus appeared. The colonies were grown in 1 L BHI at 37° C. with shaking at 150 rpm for 24-36 h to induce production of mutansucrase secreted outside the cell membrane. After incubation, the culture was harvested by centrifugation, and the supernatant with the mutansucrase was concentrated to 100 ml using a 30 K cut-off membrane filter. One unit of mutansucrase in the concentrated supernatant was defined as the amount of enzyme that catalyzes the formation of 1 μmol of fructose per minute at 37° C., pH 7.0, from 100 mM sucrose.
# These cultures were grown in glass vials at 37° C. for 48 h.
# The supernatants of individual reaction mixtures were discarded such that the insoluble glucans remained in the vial. To compare the amount of insoluble glucans produced, the synthesized glucans on the glass were washed with a HEPES buffer and dissolved in 0.5 N NaOH. The resulting wash was used to measure the soluble glucans. The absorbance of water insoluble glucans was measured at 550 nm. For visualization, synthesized glucans were dyed with a drop of dental disclosing solution.
smiles,measurement,value
O=C[C@H](O)[C@@H](O)[C@H](O[C@@H]1O[C@H](CO)[C@@H](O)[C@H](O)[C@H]1O)[C@H](O)CO [cellobiose],insoluble glucans produced compared to the control mixture,did not affect
